According to patent US20090143279A1 (priority 2007, published 2009):
Read-outs that look alike come from different tables or passages of the source.

Key:
reactive oxygen species = type: cell-based, mouse; settings: for ROS (composite Z-score): normalized score vs mock-treated (DMSO) wells
cytochrome c = type: cell-based, mouse; settings: for cyt c (composite Z-score): normalized score vs mock-treated (DMSO) wells
nuOXPHOS transcripts = type: cell-based, mouse; settings: for nucOX (composite Z-score): normalized score vs mock-treated (DMSO) wells
[1] = test system: cellular dehydrogenase activity; settings: for MTT (composite Z-score): normalized score vs mock-treated (DMSO) wells
mtOXPHOS transcripts = type: cell-based, mouse; settings: for mitoOX (composite Z-score): normalized score vs mock-treated (DMSO) wells
C2C12 myotubes = settings: for Viability (composite Z-score): normalized score vs mock-treated (DMSO) wells
OXPHOS gene expression = type: cell-based, mouse; settings: for GE-HTS (composite Z-score): normalized score vs mock-treated (DMSO) wells
[2] = test system: mitochondrial membrane potential; type: cell-based, mouse; settings: for ΔΨm (composite Z-score): normalized score vs mock-treated (DMSO) wells
[3] = normalized composite Z-score vs mock-treated (DMSO) wells, Conc 20 μM
[4] = Table 4, C2C12 myotubes, 48 h, composite Z-score
[5] = composite Z-score vs mock-treated (DMSO) wells, Conc 20 μM
[6] = composite Z-score vs DMSO, Conc 20 μM
[7] = composite Z-score vs mock-treated (DMSO) wells, concentration of each compound in μM
[8] = composite Z-score vs DMSO, Conc 15.42 μM

CC(=O)C=CC1C(C)(O)CCC2C(C)(C)CCCC21C (stereo not drawn) [8-hydroxy-15,16-bisnor-11-labden-13-one]
ROS (reactive oxygen species; [3]): 0.504
cyt c (cytochrome c; [3]): 0.550
nucOX (nuOXPHOS transcripts; [3]): −0.078
MTT [1, 3]: −0.248
mitoOX (mtOXPHOS transcripts; [3]): −1.430
Viability (C2C12 myotubes; [3]): −1.702
GE-HTS (OXPHOS gene expression; [3]): −0.554
ΔΨm [2, 3]: 0.798

COc1ccc([C@H]2Oc3c(I)c(OC)cc(OC)c3C[C@@H]2O)cc1OC [8-iodocatechin tetramethyl ether, reference compound]
ROS (reactive oxygen species; [4]): −0.448
ROS (reactive oxygen species; [5]): −0.448
cyt c (cytochrome c; [5]): 0.237
nucOX (nuOXPHOS transcripts; [5]): −0.985
MTT [1, 4]: −1.359
MTT [1, 5]: −1.359
mitoOX (mtOXPHOS transcripts; [5]): −1.411
Viability (C2C12 myotubes; [4]): 0.377
Viability (C2C12 myotubes; [5]): 0.377
GE-HTS (OXPHOS gene expression; [5]): −1.194
ΔΨm ([2]; Table 4, C2C12 myotubes, 48 h, JC-1, composite Z-score): 0.146
ΔΨm [2, 5]: 0.146

COC(=O)C[C@H]1C(C)(C)C2(O)OC34CC2C(=O)[C@]1(C)C3CC[C@]1(C)C4=CC(=O)O[C@H]1c1ccoc1 (stereo partly drawn) [8beta-hydroxycarapin, 3,8-hemiacetal]
ROS (composite Z-score) (reactive oxygen species; Conc 20 μM): 1.075
cyt c (composite Z-score) (cytochrome c; Conc 20 μM): 0.436
nucOX (composite Z-score) (nuOXPHOS transcripts; Conc 20 μM): 0.472
MTT (composite Z-score) ([1]; Conc 20 μM): 0.204
mitoOX (composite Z-score) (mtOXPHOS transcripts; Conc 20 μM): 0.789
Viability (composite Z-score) (C2C12 myotubes; Conc 20 μM): 0.561
GE-HTS (composite Z-score) (OXPHOS gene expression; Conc 20 μM): 0.600
ΔΨm (composite Z-score) ([2]; Conc 20 μM): −0.251

CC[C@@]1(O)C(=O)OCc2c1cc1n(c2=O)Cc2cc3cc(O)ccc3nc2-1 [10-hydroxycamtothecin]
ROS (composite Z-score) (reactive oxygen species; Conc 20 μM): −1.681
cyt c (composite Z-score) (cytochrome c; Conc 20 μM): −2.397
nucOX (composite Z-score) (nuOXPHOS transcripts; Conc 20 μM): −1.180
MTT (composite Z-score) ([1]; Conc 20 μM): −2.588
mitoOX (composite Z-score) (mtOXPHOS transcripts; Conc 20 μM): −0.782
Viability (composite Z-score) (C2C12 myotubes; Conc 20 μM): −1.466
GE-HTS (composite Z-score) (OXPHOS gene expression; Conc 20 μM): −1.137
ΔΨm (composite Z-score) ([2]; Conc 20 μM): 0.725

CC(=O)O[C@H]1CC[C@]2(C)[C@H]3C(=O)C=C4[C@@H]5[C@@H](C)[C@H](C)CC[C@]5(C(=O)O)CC[C@@]4(C)[C@]3(C)CC[C@H]2C1(C)C [11-oxoursolic acid acetate]
ROS (reactive oxygen species; [3]): 0.280
cyt c (cytochrome c; [3]): −1.393
nucOX (nuOXPHOS transcripts; [3]): −0.304
MTT [1, 3]: −1.214
mitoOX (mtOXPHOS transcripts; [3]): −0.027
Viability (C2C12 myotubes; [3]): 1.094
GE-HTS (OXPHOS gene expression; [3]): −0.240
ΔΨm [2, 3]: −0.524

CC(C)c1ccc2c(c1)CCC1[C@](C)(CN)CCC[C@]21C.O=S(=O)(O)O (stereo partly drawn) [18-aminoabieta-8,11,13-triene sulfate]
ROS (composite Z-score) (reactive oxygen species; Conc 20 μM): 2.176
cyt c (composite Z-score) (cytochrome c; Conc 20 μM): 0.507
nucOX (composite Z-score) (nuOXPHOS transcripts; Conc 20 μM): −0.771
MTT (composite Z-score) ([1]; Conc 20 μM): −0.762
mitoOX (composite Z-score) (mtOXPHOS transcripts; Conc 20 μM): −0.462
Viability (composite Z-score) (C2C12 myotubes; Conc 20 μM): −0.143
GE-HTS (composite Z-score) (OXPHOS gene expression; Conc 20 μM): −0.727
ΔΨm (composite Z-score) ([2]; Conc 20 μM): −0.519

CC(C)c1c(O)ccc2c1CC[C@H]1[C@@](C)(CO)CCC[C@]21C [19-hydroxytotarol]
ROS (reactive oxygen species; [5]): 1.558
cyt c (cytochrome c; [5]): 1.305
nucOX (nuOXPHOS transcripts; [5]): −0.128
MTT [1, 5]: 1.198
mitoOX (mtOXPHOS transcripts; [5]): 0.086
Viability (C2C12 myotubes; [5]): −0.207
GE-HTS (OXPHOS gene expression; [5]): −0.041
ΔΨm [2, 5]: 0.453

Oc1ccc([C@H]2Oc3cc(O)cc(O)c3C[C@H]2O)cc1 [(2R,3R)-(−)-epiafzelechin]
ROS (reactive oxygen species; [6]): 1.019
cyt c (cytochrome c; [6]): 0.166
nucOX (nuOXPHOS transcripts; [6]): −0.559
MTT [1, 6]: −0.486
mitoOX (mtOXPHOS transcripts; [6]): −0.225
Viability (C2C12 myotubes; [6]): −0.719
GE-HTS (OXPHOS gene expression; [6]): −0.497
ΔΨm [2, 6]: −3.118

CN1CCc2cc3c(cc2[C@H]1[C@@H]1OC(=O)c2c1ccc1c2OCO1)OCO3 [(+)-bicuculline]
ROS (reactive oxygen species): 0.256
ROS (reactive oxygen species; [6]): 0.428
cyt c (cytochrome c): 0.300
cyt c (cytochrome c; [6]): −0.116
nucOX (nuOXPHOS transcripts; [6]): −0.028
MTT [1]: −1.330
MTT [1, 6]: −0.812
mitoOX (mtOXPHOS transcripts; [6]): −0.495
Viability (C2C12 myotubes): −0.190
Viability (C2C12 myotubes; [6]): −0.572
GE-HTS (OXPHOS gene expression; [6]): −0.189
ΔΨm [2]: −0.852
ΔΨm [2, 6]: −0.945

CN1Cc2c(ccc3c2OCO3)[C@@H]2[C@H]1c1cc3c(cc1C[C@@H]2O)OCO3 [(+)-chelidonine]
ROS (reactive oxygen species; [7]): −1.486
cyt c (cytochrome c; [7]): −1.144
nucOX (nuOXPHOS transcripts; [7]): 0.901
MTT [1, 7]: −1.988
mitoOX (mtOXPHOS transcripts; [7]): 0.836
Viability (C2C12 myotubes; [7]): −1.005
GE-HTS (OXPHOS gene expression; [7]): 0.941
ΔΨm [2, 7]: −1.123

COc1ccc([C@@H](C)C(=O)c2ccc(O)cc2O)cc1 [(R)-angolensin]
ROS (reactive oxygen species; [5]): 0.225
cyt c (cytochrome c; [5]): −0.063
nucOX (nuOXPHOS transcripts; [5]): 0.703
MTT [1, 5]: −0.743
mitoOX (mtOXPHOS transcripts; [5]): −0.245
Viability (C2C12 myotubes; [5]): −0.164
GE-HTS (OXPHOS gene expression; [5]): 0.403
ΔΨm [2, 5]: −0.444

CC(C)NC[C@H](O)COc1cccc2ccccc12 [(S)-propranolol]
ROS (reactive oxygen species; [8]): −0.185
cyt c (cytochrome c; [8]): 0.349
nucOX (nuOXPHOS transcripts; [8]): 0.623
MTT [1, 8]: −0.351
mitoOX (mtOXPHOS transcripts; [8]): 1.161
Viability (C2C12 myotubes; [8]): 0.307
GE-HTS (OXPHOS gene expression; [8]): 0.857
ΔΨm [2, 8]: −0.340
